According to publication PMC6066355, “Probing the binding site of novel selective positive allosteric modulators at the M1 muscarinic acetylcholine receptor” (Biochemical Pharmacology, 2018):
Numbering of substitutions follows the chain as printed. Like-named read-outs stand apart in the source and are kept apart here.

How the values were obtained:
W400^7.35A M1 mAChR = target: T1, W400^7.35A M1 mAChR (Homo sapiens, UniProt P11229, W400A); assay: Whole cell [3H]NMS binding inhibition/interaction assay (ACh ± PAM), FlpIn CHO cells; conditions: affinity and cooperativity could not be estimated
T1 construct: expressed in transfected cells
T1 sequence (P11229 1-460 W400A): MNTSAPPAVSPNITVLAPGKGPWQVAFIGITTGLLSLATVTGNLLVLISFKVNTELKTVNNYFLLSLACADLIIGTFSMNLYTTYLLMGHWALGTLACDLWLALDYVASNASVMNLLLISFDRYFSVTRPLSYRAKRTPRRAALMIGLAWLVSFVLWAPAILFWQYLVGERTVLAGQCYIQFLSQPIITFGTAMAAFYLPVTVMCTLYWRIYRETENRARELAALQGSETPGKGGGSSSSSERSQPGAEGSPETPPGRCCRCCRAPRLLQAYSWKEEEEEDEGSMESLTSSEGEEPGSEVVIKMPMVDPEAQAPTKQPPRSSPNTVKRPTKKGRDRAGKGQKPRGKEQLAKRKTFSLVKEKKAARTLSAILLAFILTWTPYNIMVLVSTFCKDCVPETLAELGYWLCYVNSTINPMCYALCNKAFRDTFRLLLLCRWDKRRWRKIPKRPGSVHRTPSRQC
Protocol: (§1) Saturation binding assays were performed to estimate the expression levels and equilibrium dissociation constant of the radioligand (KD). FlpIn CHO cells stably expressing the WT or mutant c-myc hM1 mAChRs were plated at the density of 25,000 per well of 96-well white clear bottom Isoplates (PerkinElmer Life Sciences, Boston, MA), and grown overnight at 37 °C. […] Atropine at the final concentration of 100 µM was used to determine non-specific binding. The assays were terminated by rapid removal of the radioligand, and two washes with 100 µl/well ice-cold 0.9% NaCl buffer.
(§2) All data were analysed using GraphPad Prism 7 (San Diego, CA). […] Binding interaction studies between orthosteric agonists and allosteric modulators were fitted to the following allosteric ternary complex model (Eq. (1)):(1) Y=BmaxD/D+KDKB/α^′B+KB1+I/KI+B/KB+αIB/KIKB where Bmax is the total number of receptors, [D], [B] and [I] denote the concentrations of radioligand, allosteric ligand, and orthosteric ligand, respectively, and KD, KB and KI represent their respective equilibrium dissociation constants. α′ and α are the cooperativity factors between the allosteric ligand and radioligand or orthosteric ligand, respectively.

WT M1 mAChR [1] = target: T2, WT M1 mAChR (Homo sapiens, UniProt P11229); assay: as above; conditions: for Logα NMS (logarithm of binding cooperativity between [3H]NMS and modulator): constrained to −2 where preferred model by F-test
T2 construct: expressed in transfected cells
T2 sequence (P11229 1-460): T1 sequence (P11229 1-460 W400A) with A400W
Protocol: as §1, §2

Y82^2.61A M1 mAChR = target: T3, Y82^2.61A M1 mAChR (Homo sapiens, UniProt P11229, Y82A); assay: as above
T3 construct: expressed in transfected cells
T3 sequence (P11229 1-460 Y82A): T1 sequence (P11229 1-460 W400A) with Y82A, A400W
Protocol: as §1, §2

WT M1 mAChR [2] = target: T2, WT M1 mAChR; assay: IP-One (IP1) accumulation assay, CHO-hM1 cells; assay type: cell-based; conditions: for αβ (functional cooperativity with ACh, antilog in brackets) / Logαβ (logarithm of functional cooperativity between ACh and modulator): non-alkylated; for Logαβ (logarithm of functional cooperativity between ACh and modulator): pKB constrained to Table 1, β constrained to 1
Protocol: The IP-One assay kit (Cisbio) was used for the direct quantitative measurement of myo-Inositol 1 phosphate (IP1). Cells were seeded at 25,000 per well into 96-well transparent cell culture plates and incubated overnight at 37 °C. […] Cells were then lysed with IP1 lysis buffer (50 mM HEPES pH 7.0, 15 mM KF, 1.5% V/V Triton-X-100, 3% V/V FBS, 0.2% W/V BSA), and IP1 levels were measured by incubation of cell lysates with FRET reagents (the cryptate-labeled anti-IP1 antibody and the d2-labeled IP1 analogue) for 1 h at 37 °C. […] Signals were expressed as the FRET ratio: F = (fluorescence665 nm/fluorescence590 nm) × 10^4, and normalized to the response to maximal ACh concentration (100 µM).
(Eq. (2)) was used:(2) Y=Basal+Em-Basal/1+KA+A/τA where Em is the maximal possible system response and Basal is the response in the absence of agonist. [A] denotes the concentration of ligand, and KA represents its equilibrium dissociation constants. τ denotes the intrinsic efficacy of the ligand, which incorporates the total receptor density and the efficiency of stimulus-response coupling.
Functional interaction studies between orthosteric agonists and allosteric modulators in IP1 assays were analysed using the following operational model of allosterism and agonism (Eq. (3)):(3) E=Basal+Em-BasalAKB+αβB+τBBEC50/EC50KB+B+AKB+αβB+τBBEC50 where Em is the maximal possible system response, and Basal is the response in the absence of agonist. KB is the equilibrium dissociation constant of allosteric ligand, and EC50 is the concentration of orthosteric agonist required to achieve half maximal response. [A] and [B] denote concentrations of orthosteric and allosteric ligands, respectively. α and β denote allosteric effects on orthosteric ligand binding affinity and efficacy, respectively, and τB denotes the efficacy of allosteric ligand. This model assumes that ACh is a full agonist at the receptor in both the absence/presence of modulator and/or there is no efficacy modulation (i.e., β = 1).

Cn1cc(-c2ccc(COc3ccccc3-c3cc(=O)n(C4CCCCC4O)cn3)cc2)cn1 (stereo not shown) [MIPS1780, 3-(2-hydroxycyclohexyl)-6-(2-((4-(1-methyl-1H-pyrazol-4-yl)-benzyl)oxy)phenyl)pyrimidin-4(3H)-one]
Modulatory effect on ACh inhibition of [3H]NMS binding (W400^7.35A M1 mAChR): completely abolished | Kb (WT M1 mAChR [1]): 661 nM | Logα ACh (logarithm of binding cooperativity between ACh and modulator) (WT M1 mAChR [1]; WT): 1.60 ± 0.08 | Logα NMS (logarithm of binding cooperativity between [3H]NMS and modulator) (WT M1 mAChR [1]; WT): = −2 | Kb (Y82^2.61A M1 mAChR): 10000 nM | Logα ACh (logarithm of binding cooperativity between ACh and modulator) (Y82^2.61A M1 mAChR; Y82^2.61A): 1.66 ± 0.19 | Logα NMS (logarithm of binding cooperativity between [3H]NMS and modulator) (Y82^2.61A M1 mAChR; Y82^2.61A): −0.16 ± 0.06 | α ACh (binding cooperativity with ACh, antilog in brackets) (Y82^2.61A M1 mAChR; Y82^2.61A): 45.7 | α NMS (binding cooperativity with [3H]NMS, antilog in brackets) (Y82^2.61A M1 mAChR; Y82^2.61A): 0.69 | LogτB (logarithm of functional efficacy of the modulator) (WT M1 mAChR [2]): 1.00 ± 0.05 | τB (functional efficacy of the modulator, antilog in brackets) (WT M1 mAChR [2]): 10 | αβ (functional cooperativity with ACh, antilog in brackets) (WT M1 mAChR [2]): 59 | Logαβ (logarithm of functional cooperativity between ACh and modulator) (WT M1 mAChR [2]): 1.77 ± 0.14

Cc1cnc(C(=O)N[C@H]2CCOC[C@@H]2O)cc1Cc1ccc(-c2cscn2)cc1 [PF-06767832, N-((3R,4S)-3-hydroxytetrahydro-2H-pyran-4-yl)-5-methyl-4-(4-(thiazol-4-yl)benzyl)pyridine-2-carboxamide]
Modulatory effect on ACh inhibition of [3H]NMS binding (W400^7.35A M1 mAChR): completely abolished | Logα ACh (logarithm of binding cooperativity between ACh and modulator) (WT M1 mAChR [1]; WT): 1.40 ± 0.08 | Kb (WT M1 mAChR [1]; WT, allosteric ternary complex model, 0.3 nM [3H]NMS, read-out: pKB (negative logarithm of the allosteric modulator equilibrium dissociation constant) (converted)): 309 nM | Logα NMS (logarithm of binding cooperativity between [3H]NMS and modulator) (WT M1 mAChR [1]; WT): −1.05 ± 0.06 | Logα ACh (logarithm of binding cooperativity between ACh and modulator) (Y82^2.61A M1 mAChR; Y82^2.61A): 1.53 ± 0.11 | Logα NMS (logarithm of binding cooperativity between [3H]NMS and modulator) (Y82^2.61A M1 mAChR; Y82^2.61A): −0.16 ± 0.02 | α ACh (binding cooperativity with ACh, antilog in brackets) (Y82^2.61A M1 mAChR; Y82^2.61A): 30.9 | α NMS (binding cooperativity with [3H]NMS, antilog in brackets) (Y82^2.61A M1 mAChR; Y82^2.61A): 0.62 | Kb (Y82^2.61A M1 mAChR; Y82^2.61A, allosteric ternary complex model, 0.6 nM [3H]NMS, read-out: pKB (negative logarithm of the allosteric modulator equilibrium dissociation constant) (converted)): 2450 nM | LogτB (logarithm of functional efficacy of the modulator) (WT M1 mAChR [2]): 1.01 ± 0.03 | τB (functional efficacy of the modulator, antilog in brackets) (WT M1 mAChR [2]): 10 | αβ (functional cooperativity with ACh, antilog in brackets) (WT M1 mAChR [2]): 83 | Logαβ (logarithm of functional cooperativity between ACh and modulator) (WT M1 mAChR [2]): 1.92 ± 0.11

Cn1cc(-c2ccc(Cn3cc(C(=O)N[C@H]4CCCC[C@@H]4O)c4c(F)cc(F)cc43)cn2)cn1 [VU6004256, 4,6-difluoro-N-(1S,2S)-2-hydroxycyclohexyl-1-((6-(1-methyl-1H-pyrazol-4-yl)pyridine-3-yl)methyl)-1H-indole-3-carboxamide]
Modulatory effect on ACh inhibition of [3H]NMS binding (W400^7.35A M1 mAChR): completely abolished | Kb (WT M1 mAChR [1]): 479 nM | Logα ACh (logarithm of binding cooperativity between ACh and modulator) (WT M1 mAChR [1]; WT): 1.40 ± 0.09 | α ACh (binding cooperativity with ACh, antilog in brackets) (WT M1 mAChR [1]; WT): 15.5 | Logα NMS (logarithm of binding cooperativity between [3H]NMS and modulator) (WT M1 mAChR [1]; WT): = −2 | Kb (Y82^2.61A M1 mAChR): 2240 nM | Logα ACh (logarithm of binding cooperativity between ACh and modulator) (Y82^2.61A M1 mAChR; Y82^2.61A): 1.08 ± 0.13 | Logα NMS (logarithm of binding cooperativity between [3H]NMS and modulator) (Y82^2.61A M1 mAChR; Y82^2.61A): −0.09 ± 0.03 | α ACh (binding cooperativity with ACh, antilog in brackets) (Y82^2.61A M1 mAChR; Y82^2.61A): 11.2 | α NMS (binding cooperativity with [3H]NMS, antilog in brackets) (Y82^2.61A M1 mAChR; Y82^2.61A): 0.76 | LogτB (logarithm of functional efficacy of the modulator) (WT M1 mAChR [2]): 1.24 ± 0.05 | τB (functional efficacy of the modulator, antilog in brackets) (WT M1 mAChR [2]): 17 | αβ (functional cooperativity with ACh, antilog in brackets) (WT M1 mAChR [2]): 60 | Logαβ (logarithm of functional cooperativity between ACh and modulator) (WT M1 mAChR [2]): 1.78 ± 0.18
